Test: Metabolic stability in human liver microsomes
Type: in vitro ADME
Conditions: human, human liver microsomes; HLMs, 120 min; read-out: metabolic stability (% remaining after the reaction with HLMs)
Excerpt: Molecular mass Molecular mass of the
Substrate (m/z) metabolite (m/z) Metabolic pathway
* Reference unstable drug; metabolic stability determined using the same procedure published previously

Q: With CC(=O)NC(C)C(=O)N1CCN(c2cccc(C(F)(F)F)c2)CC1 (stereo not shown) [Compound 26, N-(1-oxo-1-(4-(3-(Trifluoromethyl)phenyl)piperazin-1-yl)propan-2-yl)acetamide] as the molecule, how does the remaining at 2 h read?
A: 93.5%

From paper PMC11157491, “Novel Alaninamide Derivatives with Drug-like Potential for Development as Antiseizure and Antinociceptive Therapies—In Vitro and In Vivo Characterization” (ACS Chemical Neuroscience, 2024)
